pKi: −log10 of the molar value.
What was measured:
NE transporter [1] = biological target: NE transporter (Rattus norvegicus, UniProt Q63380); assay: Binding at native NE transporter; details: Table 7; native transporter, head prints r (rat); read-out: rNE Uptk Ki
Method: (§1) The binding properties of the compounds of the present invention were evaluated at one or more cloned receptors or native, tissue-derived transporters, using protocols described below.
(§2) The methods to determine binding affinity at native transporters are described in the following publications: 5HT transporter and NE transporter (Owens et al., 1997), and DA transporter (Javitch et al, 1984).
(§3) Binding data were analyzed using nonlinear regression and statistical techniques available in the GraphPAD Prism package (San Diego, CA). Enzymatic assay data were derived from a standard curve of reference compound data.

NE transporter [2] = assay: Binding at native NE transporter; details: Table 8; Ki rNE Uptk divided by Ki hGAL3
Method: as §1, §2, §3

DA transporter = DA transporter (Rattus norvegicus, UniProt P23977); assay: Binding at native DA transporter; details: for pKi: Table 7, native transporter, head prints r (rat), read-out: rDA Uptk Ki; for selectivity ratio rDA Uptk: Table 8, Ki rDA Uptk divided by Ki hGAL3
Sequence of DA transporter (P23977 whole entry): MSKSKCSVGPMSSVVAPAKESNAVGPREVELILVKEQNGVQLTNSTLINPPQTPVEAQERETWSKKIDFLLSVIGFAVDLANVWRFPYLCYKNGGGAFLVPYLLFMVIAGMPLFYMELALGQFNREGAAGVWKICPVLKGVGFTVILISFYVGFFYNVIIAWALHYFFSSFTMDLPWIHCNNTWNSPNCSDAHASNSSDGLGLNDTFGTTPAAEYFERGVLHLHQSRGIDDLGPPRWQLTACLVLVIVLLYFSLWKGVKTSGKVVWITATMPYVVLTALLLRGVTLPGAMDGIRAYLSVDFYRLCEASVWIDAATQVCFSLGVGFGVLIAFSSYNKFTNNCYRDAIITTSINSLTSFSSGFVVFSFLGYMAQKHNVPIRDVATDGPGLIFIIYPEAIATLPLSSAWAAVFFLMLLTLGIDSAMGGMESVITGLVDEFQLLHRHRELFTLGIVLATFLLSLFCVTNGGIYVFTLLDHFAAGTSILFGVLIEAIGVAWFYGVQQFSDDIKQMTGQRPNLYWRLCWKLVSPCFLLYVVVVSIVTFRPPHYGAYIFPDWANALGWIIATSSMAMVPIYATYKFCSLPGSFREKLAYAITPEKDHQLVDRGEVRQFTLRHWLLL
Method: as §1, §2, §3

[3] = biological target: T1, human α1D adrenergic receptor (Homo sapiens, UniProt P25100); assay: Radioligand binding, α1D adrenergic receptor; details: for pKi: Table 9, read-out: hα1D Ki; for selectivity ratio hα1D: Table 10, Ki hα1D divided by Ki hGAL3
T1 construct: expressed in transfected cells
T1 sequence (P25100 1-572): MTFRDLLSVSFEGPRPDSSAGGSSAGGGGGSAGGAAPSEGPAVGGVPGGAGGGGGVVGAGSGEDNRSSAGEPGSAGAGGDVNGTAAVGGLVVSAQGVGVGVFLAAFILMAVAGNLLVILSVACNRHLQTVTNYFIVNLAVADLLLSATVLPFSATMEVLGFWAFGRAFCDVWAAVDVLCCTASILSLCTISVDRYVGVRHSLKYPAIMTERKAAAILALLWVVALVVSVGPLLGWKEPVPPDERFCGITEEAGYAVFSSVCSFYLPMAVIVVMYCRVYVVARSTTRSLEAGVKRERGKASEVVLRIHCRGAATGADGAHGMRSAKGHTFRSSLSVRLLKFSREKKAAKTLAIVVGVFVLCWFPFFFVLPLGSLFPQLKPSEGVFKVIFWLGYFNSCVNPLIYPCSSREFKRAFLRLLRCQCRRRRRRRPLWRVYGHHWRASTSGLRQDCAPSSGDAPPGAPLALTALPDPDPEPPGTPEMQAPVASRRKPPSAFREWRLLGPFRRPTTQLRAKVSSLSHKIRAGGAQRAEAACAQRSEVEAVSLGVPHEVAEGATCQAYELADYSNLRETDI
Excerpt: (§4) Other receptors: Cell membranes expressing human dopamine D1, D2, D4 and rat D3 receptors were purchased through BioSignal, Inc. (Montreal, Canada). Binding assays using the histamine H1 receptor; dopamine receptors; and α1A, α1E, and α2 adrenergic receptors may be carried out according to the procedures described in U.S. Patent No. 5,780,485, the disclosure of which is hereby incorporated by reference in its entirety into this application. Binding assays using the dopamine D5 receptor may be carried out according to the procedures described in U.S. Patent No. 5,882,855, the disclosure of which is hereby incorporated by reference in its entirety into this application. Binding assays for the human α1D adrenergic receptor may be carried out according to the procedures described in U.S. Patent No. 6,156,518, the disclosure of which is hereby incorporated by reference in its entirety into this application.
as §3

human α2B adrenoceptor = biological target: T2, human α2B adrenoceptor (Homo sapiens, UniProt P18089); assay: Radioligand binding, α2B adrenergic receptor; details: for pKi: Table 9, read-out: hα2B Ki; for selectivity ratio hα2B: Table 10, Ki hα2B divided by Ki hGAL3
T2 construct: expressed in transfected cells
T2 sequence (P18089 1-450): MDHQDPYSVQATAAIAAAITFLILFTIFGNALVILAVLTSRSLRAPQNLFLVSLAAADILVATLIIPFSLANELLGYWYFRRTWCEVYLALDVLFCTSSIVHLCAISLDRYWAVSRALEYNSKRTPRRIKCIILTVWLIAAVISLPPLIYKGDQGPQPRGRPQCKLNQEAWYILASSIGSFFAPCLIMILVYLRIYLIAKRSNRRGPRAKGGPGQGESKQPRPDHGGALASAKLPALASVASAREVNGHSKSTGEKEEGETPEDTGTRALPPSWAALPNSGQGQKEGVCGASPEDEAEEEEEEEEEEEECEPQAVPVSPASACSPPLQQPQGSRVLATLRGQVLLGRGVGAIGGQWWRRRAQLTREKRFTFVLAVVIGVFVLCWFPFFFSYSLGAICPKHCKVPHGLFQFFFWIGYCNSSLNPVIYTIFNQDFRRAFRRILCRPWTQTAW
Excerpt: as §4, §3

human α2C adrenoceptor = biological target: T3, human α2C adrenoceptor (Homo sapiens, UniProt P18825); assay: Radioligand binding, α2C adrenergic receptor; details: for pKi: Table 9, read-out: hα2C Ki; for selectivity ratio hα2C: Table 10, Ki hα2C divided by Ki hGAL3
T3 construct: expressed in transfected cells
T3 sequence (P18825 1-462): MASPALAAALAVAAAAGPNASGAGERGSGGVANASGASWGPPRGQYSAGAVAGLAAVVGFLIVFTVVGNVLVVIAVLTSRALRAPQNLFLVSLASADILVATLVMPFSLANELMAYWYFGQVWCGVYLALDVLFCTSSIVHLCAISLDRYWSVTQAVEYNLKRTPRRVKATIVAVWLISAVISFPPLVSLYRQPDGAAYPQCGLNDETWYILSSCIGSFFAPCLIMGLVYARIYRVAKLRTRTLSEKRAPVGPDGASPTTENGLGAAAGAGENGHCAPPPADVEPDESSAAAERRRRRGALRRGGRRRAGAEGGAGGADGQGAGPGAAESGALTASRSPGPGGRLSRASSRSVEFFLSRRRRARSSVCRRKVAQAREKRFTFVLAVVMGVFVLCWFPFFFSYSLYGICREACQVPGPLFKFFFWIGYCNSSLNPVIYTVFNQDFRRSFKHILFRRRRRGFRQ
Excerpt: as §4, §3

human dopamine D1 = biological target: T4, human dopamine D1 (Homo sapiens, UniProt P21728); assay: Radioligand binding, dopamine D1 receptor; details: for pKi: Table 9, read-out: hD1 Ki; for selectivity ratio hD1: Table 10, Ki hD1 divided by Ki hGAL3
T4 construct: purchased BioSignal, Inc. (Montreal, Canada); host or cells: membranes of cells expressing the receptor
T4 sequence (P21728 whole entry): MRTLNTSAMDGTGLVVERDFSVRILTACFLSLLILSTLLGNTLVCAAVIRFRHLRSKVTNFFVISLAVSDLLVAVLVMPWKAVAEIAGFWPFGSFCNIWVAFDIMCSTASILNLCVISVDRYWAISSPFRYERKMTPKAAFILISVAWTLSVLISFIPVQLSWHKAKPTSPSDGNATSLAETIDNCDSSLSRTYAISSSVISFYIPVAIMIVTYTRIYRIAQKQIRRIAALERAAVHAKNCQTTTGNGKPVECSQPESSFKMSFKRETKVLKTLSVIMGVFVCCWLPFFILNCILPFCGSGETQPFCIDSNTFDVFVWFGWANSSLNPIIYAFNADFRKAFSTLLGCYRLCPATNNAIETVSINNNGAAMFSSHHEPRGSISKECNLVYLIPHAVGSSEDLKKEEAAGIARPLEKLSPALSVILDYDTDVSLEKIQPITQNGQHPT
Excerpt: as §4, §3

rat D3 receptors = biological target: T5, rat D3 receptors (Rattus norvegicus, UniProt P19020); assay: Radioligand binding, dopamine D3 receptor; details: for pKi: Table 9, read-out: rD3 Ki; for selectivity ratio rD3: Table 10, Ki rD3 divided by Ki hGAL3
T5 construct: purchased BioSignal, Inc. (Montreal, Canada)
T5 sequence (P19020 whole entry): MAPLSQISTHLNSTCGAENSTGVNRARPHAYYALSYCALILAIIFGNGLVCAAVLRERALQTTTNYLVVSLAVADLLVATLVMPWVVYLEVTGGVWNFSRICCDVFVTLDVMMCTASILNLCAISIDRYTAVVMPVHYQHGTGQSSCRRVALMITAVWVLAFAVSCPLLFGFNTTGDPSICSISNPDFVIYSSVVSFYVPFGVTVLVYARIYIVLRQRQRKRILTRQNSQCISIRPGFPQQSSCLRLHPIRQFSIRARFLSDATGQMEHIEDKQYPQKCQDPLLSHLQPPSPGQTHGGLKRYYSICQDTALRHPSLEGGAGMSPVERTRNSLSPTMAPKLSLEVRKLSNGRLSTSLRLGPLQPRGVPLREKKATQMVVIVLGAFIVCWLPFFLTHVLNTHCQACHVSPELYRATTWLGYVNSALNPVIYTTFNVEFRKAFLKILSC
Excerpt: as §4, §3

Sequence of NE transporter (Rattus norvegicus, UniProt Q63380) (Q63380 1-617): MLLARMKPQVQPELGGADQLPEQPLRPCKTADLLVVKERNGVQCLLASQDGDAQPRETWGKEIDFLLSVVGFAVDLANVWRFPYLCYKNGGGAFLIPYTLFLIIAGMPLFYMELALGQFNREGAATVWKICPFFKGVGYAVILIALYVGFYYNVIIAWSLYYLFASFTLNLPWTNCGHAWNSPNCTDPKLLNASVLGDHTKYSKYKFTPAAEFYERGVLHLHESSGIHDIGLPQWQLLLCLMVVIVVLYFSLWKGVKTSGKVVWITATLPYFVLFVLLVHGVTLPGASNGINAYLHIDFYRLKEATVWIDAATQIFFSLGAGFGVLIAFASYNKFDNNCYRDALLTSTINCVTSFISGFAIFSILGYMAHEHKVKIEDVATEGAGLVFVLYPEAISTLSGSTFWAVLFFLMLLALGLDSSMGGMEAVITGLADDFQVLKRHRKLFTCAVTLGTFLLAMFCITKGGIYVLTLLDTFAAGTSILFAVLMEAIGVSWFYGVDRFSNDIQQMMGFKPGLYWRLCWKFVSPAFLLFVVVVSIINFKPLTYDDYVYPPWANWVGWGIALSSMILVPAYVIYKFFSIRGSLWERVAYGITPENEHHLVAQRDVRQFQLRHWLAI

Row | Structure (SMILES) | pKi (NE transporter [1]) | selectivity ratio rNE Uptk (NE transporter [2]) | pKi (DA transporter) | selectivity ratio rDA Uptk (DA transporter) | pKi [3] | selectivity ratio hα1D [3] | pKi (human α2B adrenoceptor) | selectivity ratio hα2B (human α2B adrenoceptor) | pKi (human α2C adrenoceptor) | selectivity ratio hα2C (human α2C adrenoceptor) | pKi (human dopamine D1) | selectivity ratio hD1 (human dopamine D1) | pKi (rat D3 receptors) | selectivity ratio rD3 (rat D3 receptors)
1 | O=C1C(=Nc2ccc(Cl)cc2)c2ccccc2N1c1ccccc1 [Example 97, 3-[(4-CHLOROPHENYL)IMINO]-1-PHENYL-1,3-DIHYDRO-2H-INDOL-2-ONE] | 5.36 | >30 | 5.07 | >100 | 5.19 | >100 | < 4.30 | >100 | < 4.30 | >100 | 4.60 | >100 | 5.01 | >100
2 | CN(C)c1cc(Nc2ccc(Cl)c(Cl)c2)nc(Nc2ccccc2)n1 [Example 60] | 4.34 | >100 | 4.84 | >100 | 5.37 | >30 | < 4.30 | >100 | 5.14 | >30 | 6.22 | 7 | 4.82 | >100
3 | O=C1C(=Nc2cccc(Cl)c2)c2ccccc2N1c1ccccc1 [Example 94, 3-[(3-CHLOROPHENYL)IMINO]-1-PHENYL-1,3-DIHYDRO-2H-INDOL-2-ONE] | 5.31 | >30 | 5.66 | >130 | 5.40 | >30 | 4.34 | >100 | 4.32 | >100 | 5.67 | >30 | 6.37 | 9
4 | COc1cccc(Nc2cc(N3CCCCC3)nc(N(C)CCc3c[nH]c4ccccc34)n2)c1 [Example 17] | 4.74 | >100 | 4.57 | >100 | 6.66 | 3 | 4.41 | >100 | 4.99 | >100 | 6.29 | 6 | 5.61 | 28
5 | Cc1ccc(Nc2cc(N3CCCCC3)nc(N(C)CCc3ccccc3)n2)cc1 [Example 22] | 4.88 | >100 | 5.13 | >100 | 6.43 | 13 | 5.24 | >100 | 5.56 | >100 | 6.89 | 5 | 5.25 | >100
6 | Cc1ccc(Nc2cc(N(C)C)nc(N(C)CCc3c[nH]c4ccccc34)n2)cc1 [Example 77] | 4.55 | >100 | 5.55 | >30 | 6.66 | 3 | 5.11 | >30 | 6.20 | 8 | 7.22 | 0.8 | 5.57 | >30
